# Reference: ChEMBL document CHEMBL5634139, “Novel substituted 4-(Arylethynyl)-Pyrrolo[2,3-d]pyrimidines negative allosteric modulators (NAMs) of the metabotropic glutamate receptor subtype 5 (mGlu5) Treat depressive disorder in mice” (Eur J Med Chem, 2023)
# Calls of active or inactive are those of the source. The calls are words filed in the database; no cut-off is given here.
# Assays:
# [1] = target: Metabotropic glutamate receptor 5 (Rattus norvegicus, UniProt P31424); test: Negative allosteric modulation of rat mGluR5 expressed in HEK293 assessed as decrease in intracellular calcium incubated for 30 mins by Fluo-6 calcium dye based FLIPR assay; assay type: functional, cell-based
# Sequence of Metabotropic glutamate receptor 5 (P31424 whole entry): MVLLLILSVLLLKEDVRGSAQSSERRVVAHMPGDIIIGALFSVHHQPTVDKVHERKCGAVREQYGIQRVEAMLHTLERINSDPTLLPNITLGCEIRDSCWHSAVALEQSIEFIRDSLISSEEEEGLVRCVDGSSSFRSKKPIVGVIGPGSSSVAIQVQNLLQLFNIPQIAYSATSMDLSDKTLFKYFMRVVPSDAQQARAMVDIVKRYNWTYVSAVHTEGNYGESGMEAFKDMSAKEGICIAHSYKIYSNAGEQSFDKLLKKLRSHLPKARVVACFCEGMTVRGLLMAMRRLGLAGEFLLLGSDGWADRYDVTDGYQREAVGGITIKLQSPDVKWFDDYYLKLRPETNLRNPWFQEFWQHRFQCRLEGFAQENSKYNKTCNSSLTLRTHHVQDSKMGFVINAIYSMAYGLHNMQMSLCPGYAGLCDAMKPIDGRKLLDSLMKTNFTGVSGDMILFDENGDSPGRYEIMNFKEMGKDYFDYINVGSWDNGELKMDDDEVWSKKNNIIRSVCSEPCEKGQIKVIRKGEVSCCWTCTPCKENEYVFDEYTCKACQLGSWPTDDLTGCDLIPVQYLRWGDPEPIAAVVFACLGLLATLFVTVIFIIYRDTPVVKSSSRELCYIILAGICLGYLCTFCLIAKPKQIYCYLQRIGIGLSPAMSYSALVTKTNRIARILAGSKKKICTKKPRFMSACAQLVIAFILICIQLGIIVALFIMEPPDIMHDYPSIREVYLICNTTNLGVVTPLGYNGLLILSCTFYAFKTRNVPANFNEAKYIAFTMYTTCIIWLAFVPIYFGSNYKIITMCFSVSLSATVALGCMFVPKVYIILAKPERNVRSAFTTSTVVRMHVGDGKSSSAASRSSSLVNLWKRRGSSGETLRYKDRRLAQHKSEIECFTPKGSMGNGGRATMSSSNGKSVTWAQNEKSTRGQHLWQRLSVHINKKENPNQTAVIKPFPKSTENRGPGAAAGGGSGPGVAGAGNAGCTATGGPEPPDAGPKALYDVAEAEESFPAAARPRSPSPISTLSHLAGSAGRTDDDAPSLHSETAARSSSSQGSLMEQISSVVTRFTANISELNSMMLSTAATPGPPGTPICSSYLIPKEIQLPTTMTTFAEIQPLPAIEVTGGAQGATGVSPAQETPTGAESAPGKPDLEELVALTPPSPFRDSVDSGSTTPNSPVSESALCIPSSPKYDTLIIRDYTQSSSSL
# [2] = test system: Mus musculus; test: Antidepressant activity in chronic unpredictable mild stress induced depression C57BL/6J mouse model assessed as upregulation of TrkB phosphorylation in hippocampus at 20 mg/kg,IG administration for 3 days by Western blotting analysis; assay type: functional, organism-based; conditions: time 3.0 day
# [3] = test system: Mus musculus; test: Antidepressant activity in chronic unpredictable mild stress induced depression C57BL/6J mouse model assessed as increase in time spent in central area at 20 mg/kg,IG administration for 3 days by open field test; assay type: functional, organism-based; conditions: time 3.0 day
# [4] = test system: Mus musculus; test: Antidepressant activity in chronic unpredictable mild stress induced depression C57BL/6J mouse model assessed as increase in frequency entering the central area at 10 mg/kg,IG administration for 3 days by open field test; assay type: functional, organism-based; conditions: time 3.0 day
# [5] = test system: Mus musculus; test: Antidepressant activity in chronic unpredictable mild stress induced depression C57BL/6J mouse model assessed as increase in frequency entering the central area at 20 mg/kg,IG administration for 3 days by open field test; assay type: functional, organism-based; conditions: time 3.0 day
# [6] = test system: Mus musculus; test: Antidepressant activity in chronic unpredictable mild stress induced depression C57BL/6J mouse model assessed as decrease in immobility time at 5 to 20 mg/kg,IG administration for 3 days by forced swimming test; assay type: functional, organism-based; conditions: dose 5-20 mg/kg, time 3.0 day
# [7] = test system: Mus musculus; test: Antidepressant activity in chronic unpredictable mild stress induced depression C57BL/6J mouse model assessed as increase in time spent in central area at 10 mg/kg,IG administration for 3 days by open field test; assay type: functional, organism-based; conditions: time 3.0 day
# [8] = test system: Mus musculus; test: Antidepressant activity in chronic unpredictable mild stress induced depression C57BL/6J mouse model assessed as change in total distance travelled at 5 to 20 mg/kg,IG administration for 3 days by open field test; assay type: functional, organism-based; conditions: dose 5-20 mg/kg, time 3.0 day
# [9] = test system: Mus musculus; test: Antidepressant activity in chronic unpredictable mild stress induced depression C57BL/6J mouse model assessed as upregulation of BDNF expression in hippocampus at 10 mg/kg,IG administration for 3 days by Western blotting analysis; assay type: functional, organism-based; conditions: time 3.0 day
# [10] = test system: Mus musculus; test: Antidepressant activity in chronic unpredictable mild stress induced depression C57BL/6J mouse model assessed as upregulation of BDNF expression in hippocampus at 20 mg/kg,IG administration for 3 days by Western blotting analysis; assay type: functional, organism-based; conditions: time 3.0 day
# [11] = test system: Mus musculus; test: Antidepressant activity in chronic unpredictable mild stress induced depression C57BL/6J mouse model assessed as decrease in immobility time at 5 to 20 mg/kg,IG administration for 3 days by tail suspension test; assay type: functional, organism-based; conditions: dose 5-20 mg/kg, time 3.0 day
# [12] = test system: Mus musculus; test: Antidepressant activity in chronic unpredictable mild stress induced depression C57BL/6J mouse model assessed as upregulation of GluA2 expression in hippocampus at 5 to 20 mg/kg,IG administration for 3 days by Western blotting analysis; assay type: functional, organism-based; conditions: dose 5-20 mg/kg, time 3.0 day
# [13] = test system: Mus musculus; test: Antidepressant activity in chronic unpredictable mild stress induced depression C57BL/6J mouse model assessed as downregulation of CORT level in peripheral serum at 10 mg/kg,IG administration for 3 days by ELISA; assay type: functional, organism-based; conditions: time 3.0 day
# [14] = Toxicity in chronic unpredictable mild stress induced depression C57BL/6J mouse model assessed as change in creatine kinase level in heart at 40 mg/kg,IG administration for 3 days by ELISA; assay type: organism-based; conditions: in vivo, po, 72 h, time 3 day
# [15] = Toxicity in chronic unpredictable mild stress induced depression C57BL/6J mouse model assessed as change in AST level in liver at 40 mg/kg,IG administration for 3 days by ELISA; assay type: organism-based; conditions: in vivo, po, 72 h, time 3 day
# [16] = test system: Mus musculus; test: Antidepressant activity in chronic unpredictable mild stress induced depression C57BL/6J mouse model assessed as downregulation of CORT level in peripheral serum at 20 mg/kg,IG administration for 3 days by ELISA; assay type: functional, organism-based; conditions: time 3.0 day
# [17] = Toxicity in chronic unpredictable mild stress induced depression C57BL/6J mouse model assessed as change in ALT level in liver at 40 mg/kg,IG administration for 3 days by ELISA; assay type: organism-based; conditions: in vivo, po, 72 h, time 3 day
# [18] = test system: Mus musculus; test: Antidepressant activity in chronic unpredictable mild stress induced depression C57BL/6J mouse model assessed as upregulation of GluA1 expression in hippocampus at 5 to 20 mg/kg,IG administration for 3 days by Western blotting analysis; assay type: functional, organism-based; conditions: dose 5-20 mg/kg, time 3.0 day
# [19] = test system: Mus musculus; test: Antidepressant activity in chronic unpredictable mild stress induced depression C57BL/6J mouse model assessed as upregulation of TrkB phosphorylation in hippocampus at 10 mg/kg,IG administration for 3 days by Western blotting analysis; assay type: functional, organism-based; conditions: time 3.0 day
# [20] = test system: Mus musculus; test: Antidepressant activity in chronic unpredictable mild stress induced depression C57BL/6J mouse model assessed as increase in body weight at 5 to 20 mg/kg,IG administration for 3 days; assay type: functional, organism-based; conditions: dose 5-20 mg/kg, time 3.0 day
# [21] = test system: Mus musculus; test: Antidepressant activity in chronic unpredictable mild stress induced depression C57BL/6J mouse model assessed as upregulation of PKA phosphorylation in hippocampus at 20 mg/kg,IG administration for 3 days by Western blotting analysis; assay type: functional, organism-based; conditions: time 3.0 day
# [22] = test system: Mus musculus; test: Antidepressant activity in chronic unpredictable mild stress induced depression C57BL/6J mouse model assessed as upregulation of 5-HT level in peripheral serum at 20 mg/kg,IG administration for 3 days by ELISA; assay type: functional, organism-based; conditions: time 3.0 day
# [23] = test system: Mus musculus; test: Antidepressant activity in chronic unpredictable mild stress induced depression C57BL/6J mouse model assessed as upregulation of 5-HT level in peripheral serum at 5 mg/kg,IG administration for 3 days by ELISA; assay type: functional, organism-based; conditions: time 3.0 day
# [24] = test system: Mus musculus; test: Antidepressant activity in chronic unpredictable mild stress induced depression C57BL/6J mouse model assessed as increase in body weight at 5 mg/kg,IG administration for 3 days; assay type: functional, organism-based; conditions: time 3.0 day
# [25] = test system: Mus musculus; test: Antidepressant activity in chronic unpredictable mild stress induced depression C57BL/6J mouse model assessed as change in total distance travelled at 5 mg/kg,IG administration for 3 days by open field test; assay type: functional, organism-based; conditions: time 3.0 day
# [26] = test system: Mus musculus; test: Antidepressant activity in chronic unpredictable mild stress induced depression C57BL/6J mouse model assessed as decrease in immobility time at 5 mg/kg,IG administration for 3 days by forced swimming test; assay type: functional, organism-based; conditions: time 3.0 day
# [27] = test system: Mus musculus; test: Antidepressant activity in chronic unpredictable mild stress induced depression C57BL/6J mouse model assessed as downregulation of CORT level in peripheral serum at 5 mg/kg,IG administration for 3 days by ELISA; assay type: functional, organism-based; conditions: time 3.0 day
# [28] = test system: Mus musculus; test: Antidepressant activity in chronic unpredictable mild stress induced depression C57BL/6J mouse model assessed as decrease in immobility time at 5 mg/kg,IG administration for 3 days by tail suspension test; assay type: functional, organism-based; conditions: time 3.0 day
# [29] = test system: Mus musculus; test: Antidepressant activity in chronic unpredictable mild stress induced depression C57BL/6J mouse model assessed as increase in time spent in central area at 5 mg/kg,IG administration for 3 days by open field test; assay type: functional, organism-based; conditions: time 3.0 day
# [30] = test system: Mus musculus; test: Antidepressant activity in chronic unpredictable mild stress induced depression C57BL/6J mouse model assessed as increase in frequency entering the central area at 5 mg/kg,IG administration for 3 days by open field test; assay type: functional, organism-based; conditions: time 3.0 day
compound,measurement,setting,value
Cn1c(C(=O)Nc2cccc(Cl)c2)cc2c(C#Cc3ccccc3)ncnc21,IC50,[1],529 nM
Cc1ccc(C#Cc2ncnc3c2cc(C(=O)Nc2ccc(N(C)C)cc2)n3C)cc1,IC50,[1],3760 nM
Cn1c(C(=O)Nc2ccc(F)cc2)cc2c(C#Cc3ccccc3)ncnc21,IC50,[1],63.6 nM
CN(C)c1ccc(NC(=O)c2cc3c(C#Cc4ccccn4)ncnc3n2C)cc1,IC50,[1],2470 nM
Cn1c(C(=O)Nc2ccccc2)cc2c(C#Cc3ccc(F)cc3)ncnc21,IC50,[1],62.2 nM
COc1ccc(C#Cc2ncnc3c2cc(C(=O)Nc2ccc(F)cc2)n3C)cc1,IC50,[1],482 nM
Cc1nc(C#Cc2ccnc(Cl)c2)c(C)n1-c1ccc(F)cc1 [BASIMGLURANT],IC50,[1],4.3 nM
COc1ccc(C#Cc2ncnc3c2cc(C(=O)Nc2ccccc2)n3C)cc1,IC50,[1],764 nM
Cc1ccc(NC(=O)c2cc3c(C#Cc4ccc(F)cc4)ncnc3n2C)cc1,IC50,[1],101 nM
COc1ccc(NC(=O)c2cc3c(C#Cc4ccc(C)cc4)ncnc3n2C)cc1,IC50,[1],356 nM
CN(C)c1ccc(NC(=O)c2cc3c(C#Cc4ccccc4)ncnc3n2C)cc1,IC50,[1],125 nM
Cn1c(C(=O)Nc2ccc(C(C)(C)C)cc2)cc2c(C#Cc3ccccc3)ncnc21,IC50,[1],1390 nM
COc1ccc(C#Cc2ncnc3c2cc(C(=O)Nc2ccc(C(C)(C)C)cc2)n3C)cc1,IC50,[1],734 nM
Cc1ccc(C#Cc2ncnc3c2cc(C(=O)Nc2ccc(C(C)(C)C)cc2)n3C)cc1,IC50,[1],> 10000 nM
COc1ccc(NC(=O)c2cc3c(C#Cc4ccccc4)ncnc3n2C)cc1,Activity,[2],Active
same,Activity,[3],Active
same,Activity,[4],Active
same,Activity,[5],Active
same,Activity,[6],Active
same,Activity,[7],Active
same,Activity,[8],inactive
same,Activity,[9],Active
same,Activity,[10],Active
same,Activity,[11],Active
same,Activity,[12],Active
same,IC50,[1],11.5 nM
same,Activity,[13],Active
same,Activity,[14],Non-Toxic
same,Activity,[15],Non-Toxic
same,Activity,[16],Active
same,Activity,[17],Non-Toxic
same,Activity,[18],Active
same,Activity,[19],Active
same,Activity,[20],Active
same,Activity,[21],Active
same,Activity,[22],Active
Cn1c(C(=O)Nc2ccccc2)cc2c(C#Cc3ccccc3)ncnc21,IC50,[1],75.4 nM
Cn1c(C(=O)Nc2ccc(Cl)cc2)cc2c(C#Cc3ccc(F)cc3)ncnc21,IC50,[1],248 nM
Cn1c(C(=O)Nc2ccc(Cl)cc2)cc2c(C#Cc3ccccc3)ncnc21,IC50,[1],622 nM
Cn1c(C(=O)Nc2ccc(C(C)(C)C)cc2)cc2c(C#Cc3ccccn3)ncnc21,IC50,[1],2030 nM
Cn1c(C(=O)Nc2ccc(OC(F)(F)F)cc2)cc2c(C#Cc3ccccc3)ncnc21,IC50,[1],308 nM
Cn1c(C(=O)Nc2ccc(F)cc2)cc2c(C#Cc3ccc(F)cc3)ncnc21,IC50,[1],90.8 nM
COc1ccc(NC(=O)c2cc3c(C#Cc4csc(C)n4)ncnc3n2C)cc1,IC50,[1],236 nM
Cn1c(C(=O)Nc2ccc(F)cc2)cc2c(C#Cc3ccccn3)ncnc21,IC50,[1],3180 nM
Cc1ccc(C#Cc2ncnc3c2cc(C(=O)Nc2ccc(C)cc2)n3C)cc1,IC50,[1],947 nM
Cn1c(C(=O)Nc2ccc(I)cc2)cc2c(C#Cc3ccccc3)ncnc21,IC50,[1],194 nM
Cc1nc(C#Cc2ncnc3c2cc(C(=O)Nc2ccccc2)n3C)cs1,IC50,[1],2280 nM
COc1ccc(NC(=O)c2cc3c(C#Cc4ccc(F)cc4)ncnc3n2C)cc1,IC50,[1],15.2 nM
Cc1ccc(C#Cc2ncnc3c2cc(C(=O)Nc2ccc(F)cc2)n3C)cc1,IC50,[1],1010 nM
CNCCC(Oc1ccc(C(F)(F)F)cc1)c1ccccc1 (configuration not stated),Activity,[23],Active
same,Activity,[24],Active
same,Activity,[25],inactive
same,Activity,[26],Active
same,Activity,[27],Active
same,Activity,[28],Active
same,Activity,[29],Active
same,Activity,[30],Active
COc1ccc(NC(=O)c2cc3c(C#Cc4ccccn4)ncnc3n2C)cc1,IC50,[1],922 nM
Cc1ccc(NC(=O)c2cc3c(C#Cc4ccccc4)ncnc3n2C)cc1,IC50,[1],38.9 nM
Cn1c(C(=O)Nc2ccc(C(C)(C)C)cc2)cc2c(C#Cc3ccc(F)cc3)ncnc21,IC50,[1],2340 nM
CN(C)c1ccc(NC(=O)c2cc3c(C#Cc4ccc(F)cc4)ncnc3n2C)cc1,IC50,[1],135 nM
COc1ccc(C#Cc2ncnc3c2cc(C(=O)Nc2ccc(N(C)C)cc2)n3C)cc1,IC50,[1],824 nM
COc1ccc(C#Cc2ncnc3c2cc(C(=O)Nc2ccc(C)cc2)n3C)cc1,IC50,[1],241 nM
Cn1c(C(=O)Nc2ccc(Cl)c(Cl)c2)cc2c(C#Cc3ccccc3)ncnc21,IC50,[1],2030 nM
Cc1ccc(C#Cc2ncnc3c2cc(C(=O)Nc2ccccc2)n3C)cc1,IC50,[1],1380 nM
COc1ccc(C#Cc2ncnc3c2cc(C(=O)Nc2ccc(OC)cc2)n3C)cc1,IC50,[1],84 nM
Cc1ccc(NC(=O)c2cc3c(C#Cc4csc(C)n4)ncnc3n2C)cc1,IC50,[1],5570 nM
